# Assay results as given in patent publication US11872262B2, “Means and methods for treating bacterial infections” (VIB VZW, priority 2017, dated 2024).
# Residues, ends and D or L forms follow the SMILES beside them.
# How the values were obtained:
# E. coli O157:H7 = assay type: cell-based, Escherichia coli; details: screening-stage peptides tested at 1, 6, 12 and 25 μg/mL
# In short: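 Tandem-repeat aggregation-prone-region peptides from DMSO stocks were tested for growth inhibition of E. coli O157:H7 at 1, 6, 12 and 25 μg/mL.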
# [1] = In vitro haemolytic activity test; assay type: cell-based; details: human erythrocytes; read-out: LC50, concentration at which the peptide induces 50% lysis of human erythrocytes
# Procedure: The hemolytic activities of peptides were determined by hemolysis against human erythrocytes. Pooled fresh blood was obtained and erythrocytes were collected by centrifugation 3000 rpm for 5 minutes (Anticoagulated by EDTAK) (Cristina et al. 2015). The pellet was washed three times with PBS and was diluted to a concentration of 8% in PBS. 100 μL of 8% Red blood cells solution was mixed with 100 μL of serial dilutions of peptides in PBS buffer in 96 well plates (BD Biosciences). The reaction mixtures were incubated for 1 h at 37° C. Thereupon, the plate was centrifuged for 10 minutes at 3000 rpm and 100 μL of supernatant was transferred to a sterilized 96-well plate (flat bottom). The release of hemoglobin was determined by measuring the absorbance of the supernatant at 405 nm. […] Erythrocytes in 1% Triton and Max used concentration of vehicle were used as control of 100% and 0% hemolysis, respectively.
# [2] = ELISA on immobilised colpeptin1 with serum of treated animals; assay type: in vivo; details: mice treated for 18 days with 30 mg/kg
# Procedure: FIG. 2: Cross seeding and in vivo activity. (A) Fluorescence microscopy image of HeLa cells mixed with E. coli O157 and treated with FITC-labelled Colpeptin1 (green channel). Blue channel is DAPI, red is CellMask Deep Red plasma membrane dye. (D) Inhibitor effect of Colpeptin1 on bacterial growth in the presence of human blood serum (average and s.d. of 3 replicates). (E) ELISA on immobilised colpeptin1 using blood serum of animals treated for 18 days with 30 mg/kg colpeptin1 (3 replicates from 3 mice). […] See materials and methods for details.
# Given these positive results, we then established the tolerance of the Swiss mice to the peptide by performing a dose escalation experiment. […] The parameters observed included body weight, food and water consumption, home cage activity and locomotion. […] Based on these observations, we tested the antibacterial efficacy of the colpeptin1 in a mouse bladder infection model. In this model, an inoculum of 50 μL of a 10^8 CFU/mL suspension of E. coli O157:H7 was delivered via the urethra to the bladder of healthy Swiss mice. 1 h post-infection, we administered a single injection of colpeptin1 at 10 mg/kg, either via the urethra (n=15) or intraperitoneally (n=15). 24 h after treatment, the animals were sacrificed and the bacterial titer in kidney, colon, bladder and ureter was determined by plating the macerated tissue (FIG. 2F-l).
# Neisseria = assay type: cell-based
# Procedure: (§1) Gram negative bacterial strains were cultivated in Luria-Bertani (LB) broth (Difco) and gram positive bacteria strains were grown in a rich medium, brain heart infusion (BHI) broth (Difco, Sparks, MD) at 37° C. Whenever required, growth media were supplemented with appropriate antibiotic to the medium or plates. Escherichia coli DH5α was used for cloning and plasmid amplification. […] Bacterial CFU counting was done on blood agar plates (BD Biosciences). Species identification and antibiograms for all clinical isolates were performed using MALDI-TOF and VITEK® 2 automated system (bioMérieux).
# (§2) The MICs of active peptides were determined via the Broth microdilution assay according to the EUCAST guideline, which were performed in 96-well polystyrene flat-bottom microtiter plates (BD Biosciences). Briefly, a single colony was inoculated into 5 mL LB medium and grown to the end-exponential growth phase in a shaking incubator at 37° C. Cultures were subsequently diluted to an OD600 of 0.002 ([…]) in fresh LB medium. 100 μL of LB medium with different concentration of peptides ranging from 100 μg/mL to 1 μg/mL were serially diluted to the sterile 96-well plate (at least 3 wells in each plate). Afterward, 100 μL of the diluted bacteria were pipetted into 96-well plates containing different concentration of peptides. In each plate, the grown bacteria with maximum concentration of carrier and medium were considered as positive and negative controls, respectively. Thereafter, 96-well plates was statically incubated overnight at 37° C. to allow bacterial growth. A multipurpose UV/VIS plate reader at OD590 nm, 1 s shaking measured the absorbance of the growth bacteria using a Perkin Elmer spectrophotometer (1420 Multilabel Counter Victor 3).
# Acinetobacter baumanii = assay type: cell-based
# Procedure: as §1, §2
# [3] = test system: Staphylococcus aureus MRSA326; assay type: cell-based
# Procedure: as §1, §2
# [4] = test system: Staphylococcus epidermidis 12228; assay type: cell-based
# Procedure: as §1, §2
# [5] = test system: Enterobacter cloacae LMG2783T; assay type: cell-based
# Procedure: as §1, §2
# [6] = test system: Klebsiella pneumoniae (ATCC 1388); assay type: cell-based
# Procedure: as §1, §2
# [7] = test system: Acinetobacter radioresistens; assay type: cell-based
# Procedure: as §1, §2
# Pseudomonas aeruginosa = assay type: cell-based
# Procedure: as §1, §2
# Proteus mirabilis = assay type: cell-based
# Procedure: as §1, §2
smiles,measurement,setting,value
CC(C)C[C@H](NC(=O)CNC(=O)[C@H](CCCNC(=N)N)NC(=O)[C@@H]1CCCN1C(=O)[C@H](CCCNC(=N)N)NC(=O)[C@H](CCCNC(=N)N)NC(=O)[C@@H](NC(=O)[C@H](CC(C)C)NC(=O)[C@H](C)NC(=O)[C@H](CC(C)C)NC(=O)CNC(=O)[C@H](CC(C)C)NC(=O)CNC(=O)[C@@H](N)CCCNC(=N)N)C(C)C)C(=O)NCC(=O)N[C@@H](CC(C)C)C(=O)N[C@@H](C)C(=O)N[C@@H](CC(C)C)C(=O)N[C@H](C(=O)N[C@@H](CCCNC(=N)N)C(=O)N[C@@H](CCCNC(=N)N)C(=O)O)C(C)C [Peptide P2] (H-RGLGLALVRRPRGLGLALVRR-OH),E. coli O157 (apparent MIC in screen),E. coli O157:H7,6 µg/mL
same,HC50 at 1 h,[1],1100 µg/mL
same,antibody response towards the peptide (ELISA on serum),[2],no specific antibody response
same,MIC,Neisseria,50 µg/mL
same,MIC,Acinetobacter baumanii,6 µg/mL
same,MIC,[3],200 µg/mL
same,MIC,[4],50 µg/mL
same,MIC,[5],50 µg/mL
same,MIC,[6],50 µg/mL
same,MIC,[7],5 µg/mL
same,MIC,Pseudomonas aeruginosa,200 µg/mL
same,MIC,Proteus mirabilis,50 µg/mL
